In assay [1] the target is T1, mammalian catalase (Bos taurus, UniProt P00432).
T1 construct: purified catalases obtained from a variety of sources including enzyme from mouse and bovine liver; purchased Sigma Chemical Co., St. Louis, Mo; host or cells: liver tissue (mouse and bovine named)
T1 sequence (P00432 2-527 limits assumed): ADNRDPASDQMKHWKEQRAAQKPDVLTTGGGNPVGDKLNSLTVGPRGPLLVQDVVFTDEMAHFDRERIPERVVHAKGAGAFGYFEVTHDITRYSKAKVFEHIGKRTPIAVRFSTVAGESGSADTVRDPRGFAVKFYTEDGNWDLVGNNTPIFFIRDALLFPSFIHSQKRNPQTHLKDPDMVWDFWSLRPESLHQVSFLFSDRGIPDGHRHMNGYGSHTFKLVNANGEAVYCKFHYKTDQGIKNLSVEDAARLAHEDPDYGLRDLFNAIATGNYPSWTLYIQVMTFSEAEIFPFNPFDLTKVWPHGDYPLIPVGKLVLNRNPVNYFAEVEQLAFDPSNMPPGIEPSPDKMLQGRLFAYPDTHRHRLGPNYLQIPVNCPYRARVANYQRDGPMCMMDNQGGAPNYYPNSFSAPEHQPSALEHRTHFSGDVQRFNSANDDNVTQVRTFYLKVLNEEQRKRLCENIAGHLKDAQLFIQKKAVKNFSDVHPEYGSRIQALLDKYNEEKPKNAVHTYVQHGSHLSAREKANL
Description: Competition with AMPLEX-RED: inhibition of the AMPLEX-RED catalase oxidase reaction. The settings on record: for kind of inhibition of the AMPLEX-RED oxidase reaction (kinetic analysis): competitive or noncompetitive; for inhibition of the oxidation of AMPLEX-RED to resorufin by catalase: concentrations ranging from 0.005 mM to 0.1 mm or greater; for Ki: calculated from kinetic analysis, catalase 1 mg/ml, read-out: Ki for inhibition of the AMPLEX-RED catalase oxidation reaction; for inhibition of the AMPLEX-RED catalase oxidase activity: catalase 1 mg/ml in reaction buffer, no concentration given. The format is biochemical, bovine. As to the method: Catalases were purchased from Sigma Chemical Co., St. Louis, Mo. Reactions were carried out in buffer consisting of 50 mM phosphate buffer, pH 7.4 and 1.0 mg/ml of the catalase at room temperature (22° C.) in a reaction volume of 0.1 ml. […] Standard reaction mixtures contain 20 nmoles of the substrate. Detection of the fluorescent product resorufin was measured using an HTS 7000 Plus Bio Assay Reader (Perkin Elmer, Beaconsfield, Buckinghamsire, UK) using a 540 nm excitation filter and a 595 nm emission filter.

The target of assay [2] is T1, mammalian catalase. Description: Oxidation of substrates by catalase oxidase activity (absorbance or fluorescence). The format is biochemical, bovine. The settings on record: in the absence of hydrogen peroxide. Here is the method:
The oxidation of multiple substrates depicted in Table 1 with time was measured using an HTS 7000 Plus Bio Assay Reader using standard catalase reaction mixes (0.5 mg/ml catalase in 50 mM phosphate buffer, pH 7.4). Pyrogallol oxidation (1 mM) was measured by the increase in absorbance at 430 nm. Oxidation of ABTS (1 mM) was measured as the […] in absorbance at 430 nm. Oxidation of catechol (1 mM) was measured as the increase in absorbance at 420 nm. Oxidation of DCFH (5 μM) by catalase was measured as the increase in fluorescence over time with a 485 nm excitation filter and a 520 nm emission filter.

The target in the next assay is T2, catalase (Bos taurus, UniProt P00432).
T2 sequence (P00432 2-527 limits assumed): T1 sequence (P00432 2-527 limits assumed)
Description: Accelerating catalase oxidation of DCFH-DA with UV light. The format is biochemical. The settings on record: DCFH-DA 5 μM, catalase 1 mg/ml. Here is the method: The present invention also relates to methods for accelerating the oxidation of substrates by catalase by exposure to ultraviolet light. For purposes of the present invention, by “accelerate” or “accelerating” it is meant that the rate at which catalase oxidizes a substrate is increased when exposed to ultraviolet light as compared the rate of oxidation of the substrate by catalase in the absence of ultraviolet light. In this method, a substrate is added to mammalian catalase and the mixture is then treated with low doses of ultraviolet light to accelerate oxidation of the substrate. In a preferred embodiment of this method, the low dose of ultraviolet radiation ranges between 2.5 and 25 mJ/cm^2 at a wavelength of UVB light that is between 290 and 320 nm. […] For example, the substrate DCFH-DA was added to a reaction mixture containing catalase in sodium phosphate buffer. The samples were then exposed to increasing doses of ultraviolet light (UVB, 290–320 nm).
Samples were then exposed to increasing doses of ultraviolet light (UVB, 290–320 nm) emitted from a bank of two FS20 UVB light bulbs (Sylvania).

Entries after “also recorded” stand apart in the source; their conditions may differ.

On to `Oc1ccccc1O` [DHB, 1,2-dihydroxybenzene(catechol)], for which, at mammalian catalase [1], the “kind of inhibition of the AMPLEX-RED oxidase reaction (kinetic analysis)” value (shortened to “kind of inhibition … (kinetic analysis)”) is recorded as “competitive inhibitors” and the “inhibition of the oxidation of AMPLEX-RED to resorufin by catalase” value (“inhibition of the oxidation … by catalase” for short) was “inhibition”.
Regarding `Cc1c(N(C)C)c(=O)n(-c2ccccc2)n1C` [4-dimethylaminoantipyrine], the entries for the “kind of inhibition … (kinetic analysis)” value on mammalian catalase [1] and on mammalian catalase [1] (listed as aminopyrene) were “non-competitive inhibitors” and “noncompetitive inhibitor”, respectively. Besides, at mammalian catalase [1], the “inhibition of the oxidation … by catalase” value was “inhibition”.
Consider `COc1cc(-c2ccc(N)c(OC)c2)ccc1N` [DMB, 3,3′-dimethoxybenzidine], for which, at mammalian catalase [1], the “kind of inhibition … (kinetic analysis)” value is “competitive inhibitors” and the “inhibition of the oxidation … by catalase” value is on record as “inhibition”.
For `CCn1/c(=N\N=c2\sc3cc(S(=O)(=O)O)ccc3n2CC)sc2cc(S(=O)(=O)O)ccc21.N.N` [ABTS, 2,2′-azino-bis[3-ethylbenzthiazoline-6-sulfonic acid]] the same measures were “competitive inhibitors” and “inhibition”.
Consider “5-amino-2,3-dihydro-1,4-phthalazine-dione (luminol)”, for which the “kind of inhibition … (kinetic analysis)” value at mammalian catalase [1] was “competitive inhibitor”.
One may read the Ki as a dissociation constant, usually derived from enzyme kinetics or from competition with a known ligand. Regarding `Oc1cccc(O)c1O` [pyrogallol, 1,2,3-trihydroxybenzene(pyrogallol)], on mammalian catalase [1], the Ki was 1680 µM, the “kind of inhibition … (kinetic analysis)” value is listed as “competitive inhibitors” and the “inhibition of the oxidation … by catalase” value is given as “inhibition”.
For `Nc1ccc(-c2ccc(N)c(N)c2)cc1N` [DAB, 3,3′-diaminobenzidine], on mammalian catalase [1], the “inhibition of the AMPLEX-RED catalase oxidase activity” value is on record as “inhibitors”, the “kind of inhibition … (kinetic analysis)” value is “competitive inhibitors” and the “inhibition of the oxidation … by catalase” value is “inhibition”.
Consider `COc1cc(/C=C/C(=O)O)ccc1O` [HMCA, 4-hydroxy-3-methoxycinnamicacid (ferulic acid)], for which, at mammalian catalase [1], the “kind of inhibition … (kinetic analysis)” value is given as “competitive inhibitors” and the “inhibition of the oxidation … by catalase” value is given as “inhibition”. The “substrate for the catalase oxidase reaction” value on mammalian catalase [2] is recorded as “substrate”.
As for `O=C(OC1Cc2c(O)cc(O)cc2OC1c1cc(O)c(O)c(O)c1)c1cc(O)c(O)c(O)c1` (single isomer, unassigned; (-)) [EGCG, (−)-epigallocatechin-3-gallate], the “substrate for the catalase oxidase reaction” value on mammalian catalase [2] was “substrate”.
For the molecule `CC(=O)Oc1cc2c(cc1Cl)C(c1ccccc1C(=O)O)c1cc(Cl)c(OC(C)=O)cc1O2` [DCFH-DA, 2′,7′-dichlorodihydrofluoresceindiacetate], at mammalian catalase [1], the Ki is 31.6 µM, the “kind of inhibition … (kinetic analysis)” value is given as “competitive inhibitors” and the “inhibition of the oxidation … by catalase” value is given as “inhibition”. In addition, on catalase (absence of UVB light), the “oxidation of DCFH-DA by catalase (increase in fluorescence)” value is on record as “Oxidation of DCFH-DA is observed; also recorded: Relatively low levels of oxidation”. Also, the “oxidation of DCFH-DA by catalase (increase in fluorescence)” value at catalase (with UVB light 290–320 nm, increasing doses) was “marked enhancement”.
In the case of `Nc1nc[nH]n1` [3-amino-1,2,4-triazole], at mammalian catalase [1], the “inhibition of the AMPLEX-RED catalase oxidase activity” value is “inhibits”.

The values above are taken from US7015022B2, “Mammalian catalase-dependent oxidation processes and methods for stimulating oxidative activities” (University of Medicine & Dentistry of New Jersey, priority 2002, dated 2006).
